These results are taken from US12180200B1, “2-(benzo[d]oxazol-2-yl)-n′-(isonicotinoyloxy)acetimidamide as an antimicrobial compound” (KING FAISAL UNIVERSITY, priority 2023, dated 2024).

What all share (type): cell-based
Experiment [1] has as its system Chrysosporium keratinophilum. Put plainly: Agar plate disc-diffusion, antifungal activity. The protocol:
(§1) The agar plate disc-diffusion method was applied. […] The discs were then placed onto the surface of agar plates (nutrient agar for bacteria and Sabouraud's dextrose agar for fungi) seeded with the test organism. Each plate contained 15 mL of the agar medium, previously seeded with 0.2 mL of the broth culture of each organism pregrown for 18 hours. The plates were incubated at 37° C. for 48 hours, and 72 hours for fungi. The inhibition zones was measured in mm. Discs impregnated with DMSO were used as a control, and its inhibition zone was subtracted from the tested compound actual inhibition zone.
On the technique in general: In agar diffusion tests the substance spreads into inoculated agar from a disc or well.

Experiment [2] concerns Aspergillus flavus. Put plainly: Agar plate disc-diffusion, antifungal activity. The protocol: as §1
Experiment [3] deals with Staphylococcus aureus. The experiment can be described thus: Agar plate disc-diffusion, antibacterial activity. The protocol: as §1
Experiment [4] concerns Pseudomonas aeruginosa. The experiment can be described thus: Agar plate disc-diffusion, antibacterial activity. The protocol: as §1
The test system of experiment [5] is Escherichia coli. Put plainly: Agar plate disc-diffusion, antibacterial activity. The protocol:
as §1

For experiment [6], the system named is Bacillus cereus. Put plainly: Agar plate disc-diffusion, antibacterial activity. The protocol: as §1
Experiment [7] deals with different microbes. Put plainly: Antimicrobial activity screening (overall statement). The note with it: against different microbes (bacteria and fungi of Tables 1 and 2). On the procedure: The agar plate disc-diffusion method was applied. Sterilized filter papers (6 mm in diameter) were wetted with 10 μL of a solution 2-(benzo[d]oxazol-2-yl)-N′-(isonicotinoyloxy)acetimidamide (3) to be tested, containing 10 mg/mL in DMSO, and the discs were allowed to air dry. The discs were then placed onto the surface of agar plates (nutrient agar for bacteria and Sabouraud's dextrose agar for fungi) seeded with the test organism. Each plate contained 15 mL of the agar medium, previously seeded with 0.2 mL of the broth culture of each organism pregrown for 18 hours. The plates were incubated at 37° C. for 48 hours, and 72 hours for fungi. The inhibition zones was measured in mm. Discs impregnated with DMSO were used as a control, and its inhibition zone was subtracted from the tested compound actual inhibition zone.

Setting [8] is: A = concentration of comp. = 10,000 μL.
Setting [9] is: B = concentration of comp. = 30,000 μL.
Setting [10] is: C = concentration of comp. = 50,000 μL.

Turning to `O=C(O)c1cn(C2CC2)c2cc(N3CCNCC3)c(F)cc2c1=O` [Cip., ciprofloxacin, reference compound], the inhibition zone in experiment [1] (setting [8]) is 29 mm; in experiment [1] (setting [9]), 30 mm; in experiment [1] (setting [10]), 53 mm; in experiment [2] (setting [8]) it was 29 mm; in experiment [2] (setting [9]) it was 30 mm; in experiment [2] (setting [10]) it was 42 mm. Also, the inhibition zone stood at 43 mm in experiment [3] (setting [8]); 44 mm in experiment [3] (B =); 53 mm in experiment [3] (setting [10]); 29 mm in experiment [4] (setting [8]); 30 mm in experiment [4] (setting [9]); 53 mm in experiment [4] (setting [10]). The inhibition zone came out at 30 mm in experiment [5] (setting [8]); 39 mm in experiment [5] (setting [9]); 60 mm in experiment [5] (setting [10]); 29 mm in experiment [6] (setting [8]); 30 mm in experiment [6] (setting [9]); 42 mm in experiment [6] (setting [10]).
As to `N/C(Cc1nc2ccccc2o1)=N\OC(=O)c1ccncc1` [Compound 3, 2-(benzo[d]oxazol-2-yl)-N′-(isonicotinoyloxy)acetimidamide], in experiment [7], the antimicrobial activities entry is reported as “excellent antimicrobial activities”. Besides, the inhibition zone in experiment [1] (setting [8]) is recorded as 26 mm; in experiment [1] (setting [9]) it was 29 mm; in experiment [1] (setting [10]), 48 mm; in experiment [2] (setting [8]) it was 20 mm; in experiment [2] (setting [9]), 24 mm; in experiment [2] (setting [10]), 35 mm. For the same compound, the inhibition zone was 17 mm in experiment [3] (setting [8]); 24 mm in experiment [3] (B =); 30 mm in experiment [3] (setting [10]); 25 mm in experiment [4] (setting [8]); 29 mm in experiment [4] (setting [9]); 50 mm in experiment [4] (setting [10]). Also, the inhibition zone is 27 mm in experiment [5] (setting [8]); 36 mm in experiment [5] (setting [9]); 52 mm in experiment [5] (setting [10]); 25 mm in experiment [6] (setting [8]); 27 mm in experiment [6] (setting [9]); 36 mm in experiment [6] (setting [10]).
